Data set [1] concerns the target T1, Bromodomain-containing protein 4 (Homo sapiens, UniProt O60885). Description: Induction of BRD4 degradation in human 231MFP cells. Particulars: 231mfp. The format is cell-based.
Data set [2] concerns the target T1, Bromodomain-containing protein 4. Put plainly: Induction of BRD4 degradation in human HAP1 cells. The format is cell-based.
Data set [3] has the same target. Put plainly: Induction of BRD4 degradation in human HEK293T cells at 10 uM measured at 6 hrs relative to control. The format is cell-based.
For data set [4] the target is unchanged. Put plainly: Induction of BRD4 degradation in human HEK293T cells. The format is cell-based.
Data set [5] has the same target. Description: Induction of BRD4 degradation in human HCT-116 cells assessed as downregulation of c-Myc expression. The format is cell-based.
The next data set deals with SUD4. Description: Antiproliferative activity against human SU-DHL-4 cells assessed as reduction in cell viability measured after 48 hrs by MTT assay. The format is functional. In general terms: Tetrazolium dyes change colour on reduction, which living cells bring about.
Data set [6] concerns the target T1, Bromodomain-containing protein 4. Description: Induction of BRD4 degradation in human MV4-11 cells measured after 24 hrs. The format is cell-based.
For data set [7] the target is unchanged. Description: Induction of BRD4 degradation in human HD-MB03 cells measured after 12 hrs. The format is cell-based.
For data set [8] the target is unchanged. Put plainly: Induction of BRD4 degradation in human MV4-11 cells measured after 12 hrs. The format is cell-based.
For data set [9], the system named is MV4-11. Description: Cytotoxicity against human MV4-11 cells measured after 96 hrs. The conditions noted are these: MV4-11, 96 h. The format is functional, cell-based.
The subject of data set [10] is MV4-11. Put plainly: Cytotoxicity against human MV4-11 cells. The format is functional, cell-based.
Data set [11] concerns the target T1, Bromodomain-containing protein 4. Description: Induction of BRD4 degradation in human HD-MB03 cells at 100 nM measured at 72 hrs relative to control. The format is cell-based.
Data set [12] relates to MCF7. Put plainly: Cytotoxicity against human MCF7 cells assessed as measuring cell viability incubated for 48 hrs by CCK-8 assay. The format is toxicity, cell-based. The conditions noted are these: MCF7, 48 h.
A short description of data set [13]: Cytotoxicity against human MCF10 cells assessed as measuring cell viability incubated for 48 hrs by CCK-8 assay. The format is toxicity, cell-based.
Data set [14] relates to MCF7. Put plainly: Antitumor activity against human MCF7 cells xenografted in mouse assessed as tumor growth inhibition. The format is functional.
The target of data set [15] is T1, Bromodomain-containing protein 4. Put plainly: Induction of BRD4 degradation in human MCF7 cells incubated for 72 hrs by Western blot analysis relative to control. The format is cell-based. (In western blotting, separated proteins are transferred to a membrane and probed.)
For data set [16] the target is unchanged. Put plainly: Induction of BRD4 degradation in human MCF7 cells incubated for 72 hrs by Western blot analysis. The format is cell-based.
Data set [17] has the same target. Put plainly: Induction of BRD4 degradation in human SU-DHL-4 measured after 72 hrs relative to control. The format is cell-based.
Data set [18] has the same target. Put plainly: Induction of BRD4 degradation in human SU-DHL-4 measured after 72 hrs. The format is cell-based.
Data set [19] has as its target Bromodomain-containing protein 2 (Homo sapiens, UniProt P25440). Description: Binding affinity to BRD2 BD1 (unknown origin) assessed as dissociation constant by isothermal titration calorimetry assay. A general note: ITC needs no label: the signal is the heat of the interaction.
For data set [20], the target named is T1, Bromodomain-containing protein 4. Put plainly: Induction of BRD4 degradation in human 22Rv1 cells assessed as downregulation of c-Myc expression at 250 nM measured after 2 hrs relative to control. The format is cell-based.
The subject of data set [21] is MV4-11. Description: Antiproliferative activity against human MV4-11 cells assessed as reduction in cell viability incubated for 48 to 72 hrs by Celltiter-Glo cell viability assay. The format is functional, cell-based.
In data set [22] the target is T1, Bromodomain-containing protein 4. Put plainly: Binding affinity to BRD4 BD2 (unknown origin) assessed as dissociation constant by isothermal titration calorimetry assay.
In data set [23] the target is Bromodomain-containing protein 3 (Homo sapiens, UniProt Q15059). Description: Induction of BRD3 degradation in human HeLa cells measured after 4 hrs. The format is cell-based.
Sequence of Bromodomain-containing protein 3 (Q15059 whole entry): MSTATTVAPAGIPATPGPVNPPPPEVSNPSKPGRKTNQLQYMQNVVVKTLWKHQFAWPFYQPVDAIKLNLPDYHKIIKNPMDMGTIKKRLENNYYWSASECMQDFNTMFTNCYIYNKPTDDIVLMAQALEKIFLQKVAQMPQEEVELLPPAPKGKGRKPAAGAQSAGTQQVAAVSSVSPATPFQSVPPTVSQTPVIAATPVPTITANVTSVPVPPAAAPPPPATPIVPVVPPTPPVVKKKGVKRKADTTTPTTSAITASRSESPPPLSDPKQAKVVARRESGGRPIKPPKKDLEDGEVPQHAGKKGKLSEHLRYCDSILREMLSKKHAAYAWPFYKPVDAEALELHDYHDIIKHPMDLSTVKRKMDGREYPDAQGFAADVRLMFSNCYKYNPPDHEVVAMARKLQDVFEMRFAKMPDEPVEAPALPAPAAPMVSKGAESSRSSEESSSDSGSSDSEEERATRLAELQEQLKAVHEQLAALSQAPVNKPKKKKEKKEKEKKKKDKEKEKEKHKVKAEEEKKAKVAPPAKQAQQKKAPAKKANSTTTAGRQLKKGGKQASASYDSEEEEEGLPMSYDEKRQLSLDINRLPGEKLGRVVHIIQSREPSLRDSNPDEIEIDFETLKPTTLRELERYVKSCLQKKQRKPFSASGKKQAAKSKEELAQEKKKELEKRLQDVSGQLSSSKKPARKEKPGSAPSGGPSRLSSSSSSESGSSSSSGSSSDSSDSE
Data set [24] has as its target T1, Bromodomain-containing protein 4. Put plainly: Induction of BRD4 degradation in human HeLa cells measured after 4 hrs. The format is cell-based.
Data set [25] concerns the target von Hippel-Lindau disease tumor suppressor (Homo sapiens, UniProt P40337). Put plainly: Binding affinity to VHL (unknown origin) assessed as dissociation constant by isothermal titration calorimetry assay.
The next data set has as its system CWR22R. Description: Antiproliferative activity against human 22Rv1 cells assessed as reduction in cell viability incubated for 48 to 72 hrs by Celltiter-Glo cell viability assay. The format is functional, cell-based.
The target of data set [26] is T1, Bromodomain-containing protein 4. Put plainly: Induction of BRD4 degradation in human MDA-MB-468 cells at 0.5 uM measured at 48 hrs relative to control. The format is cell-based.
For another data set, the system named is MDA-MB-468. Put plainly: Antiproliferative activity against human MDA-MB-468 cells assessed as cell growth inhibition. The format is functional.
The subject of a further data set is MDA-MB-231. Put plainly: Antiproliferative activity against human MDA-MB-231 cells assessed as cell growth inhibition. The format is functional.
Data set [27] has as its target Folliculin-interacting protein 1 (Homo sapiens, UniProt Q8TF40). Put plainly: Inhibition of FNIP1 in human HEK293T cells. The format is cell-based.
In data set [28] the target is Protein fem-1 homolog B/Folliculin-interacting protein 1 (Homo sapiens, UniProt Q8TF40+Q9UK73). Put plainly: Inhibition of FEMIB/FNIP1 interaction in human HEK293T cells. The format is cell-based.
Sequence of Protein fem-1 homolog B/Folliculin-interacting protein 1 (Q8TF40 whole entry): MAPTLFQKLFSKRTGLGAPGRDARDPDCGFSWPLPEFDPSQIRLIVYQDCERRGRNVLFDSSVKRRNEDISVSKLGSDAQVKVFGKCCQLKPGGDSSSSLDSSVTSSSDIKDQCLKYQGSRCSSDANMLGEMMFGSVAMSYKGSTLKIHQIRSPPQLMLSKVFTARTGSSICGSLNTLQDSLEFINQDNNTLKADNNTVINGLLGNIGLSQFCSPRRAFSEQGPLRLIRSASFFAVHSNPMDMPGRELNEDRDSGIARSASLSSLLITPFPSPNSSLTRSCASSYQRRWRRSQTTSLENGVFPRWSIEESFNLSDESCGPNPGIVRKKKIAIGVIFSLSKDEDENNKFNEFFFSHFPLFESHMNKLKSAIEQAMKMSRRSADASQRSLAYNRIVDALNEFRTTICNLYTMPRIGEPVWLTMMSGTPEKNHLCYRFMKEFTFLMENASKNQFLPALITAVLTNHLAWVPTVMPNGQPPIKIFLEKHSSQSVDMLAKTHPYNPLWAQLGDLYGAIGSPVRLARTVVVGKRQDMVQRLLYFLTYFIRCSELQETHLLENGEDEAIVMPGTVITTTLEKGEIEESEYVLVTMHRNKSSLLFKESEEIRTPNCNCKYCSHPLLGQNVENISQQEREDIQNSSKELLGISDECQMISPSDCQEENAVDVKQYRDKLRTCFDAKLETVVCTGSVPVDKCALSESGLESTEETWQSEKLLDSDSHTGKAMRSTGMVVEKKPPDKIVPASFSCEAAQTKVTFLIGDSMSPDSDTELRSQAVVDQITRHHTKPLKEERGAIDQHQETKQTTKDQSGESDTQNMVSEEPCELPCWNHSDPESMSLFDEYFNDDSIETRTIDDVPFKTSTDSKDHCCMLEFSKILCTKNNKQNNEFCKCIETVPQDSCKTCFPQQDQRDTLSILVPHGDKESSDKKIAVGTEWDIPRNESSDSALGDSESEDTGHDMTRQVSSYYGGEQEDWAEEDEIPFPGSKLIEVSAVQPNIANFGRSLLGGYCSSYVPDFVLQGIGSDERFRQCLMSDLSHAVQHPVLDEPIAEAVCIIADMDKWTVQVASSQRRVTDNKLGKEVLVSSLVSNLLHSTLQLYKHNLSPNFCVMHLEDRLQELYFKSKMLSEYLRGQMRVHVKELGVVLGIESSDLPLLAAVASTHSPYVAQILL
Sequence of Protein fem-1 homolog B/Folliculin-interacting protein 1 (Q9UK73 whole entry): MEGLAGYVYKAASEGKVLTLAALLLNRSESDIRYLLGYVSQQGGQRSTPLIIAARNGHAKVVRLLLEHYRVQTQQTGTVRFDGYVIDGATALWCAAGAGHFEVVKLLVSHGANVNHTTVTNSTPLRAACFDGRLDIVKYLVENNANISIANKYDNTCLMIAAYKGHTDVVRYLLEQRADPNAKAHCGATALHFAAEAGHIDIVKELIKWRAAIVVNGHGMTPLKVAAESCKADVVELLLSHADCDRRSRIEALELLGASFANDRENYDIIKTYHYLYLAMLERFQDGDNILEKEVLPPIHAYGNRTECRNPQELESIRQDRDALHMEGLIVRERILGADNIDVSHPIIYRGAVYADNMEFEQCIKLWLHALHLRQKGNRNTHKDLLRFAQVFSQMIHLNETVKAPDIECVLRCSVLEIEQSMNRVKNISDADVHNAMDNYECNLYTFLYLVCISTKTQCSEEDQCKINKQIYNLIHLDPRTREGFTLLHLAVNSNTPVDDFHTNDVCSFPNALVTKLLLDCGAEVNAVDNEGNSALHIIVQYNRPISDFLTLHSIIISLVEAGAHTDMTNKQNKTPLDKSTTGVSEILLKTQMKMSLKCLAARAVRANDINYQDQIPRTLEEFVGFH

Sequence of Bromodomain-containing protein 2 (P25440 whole entry): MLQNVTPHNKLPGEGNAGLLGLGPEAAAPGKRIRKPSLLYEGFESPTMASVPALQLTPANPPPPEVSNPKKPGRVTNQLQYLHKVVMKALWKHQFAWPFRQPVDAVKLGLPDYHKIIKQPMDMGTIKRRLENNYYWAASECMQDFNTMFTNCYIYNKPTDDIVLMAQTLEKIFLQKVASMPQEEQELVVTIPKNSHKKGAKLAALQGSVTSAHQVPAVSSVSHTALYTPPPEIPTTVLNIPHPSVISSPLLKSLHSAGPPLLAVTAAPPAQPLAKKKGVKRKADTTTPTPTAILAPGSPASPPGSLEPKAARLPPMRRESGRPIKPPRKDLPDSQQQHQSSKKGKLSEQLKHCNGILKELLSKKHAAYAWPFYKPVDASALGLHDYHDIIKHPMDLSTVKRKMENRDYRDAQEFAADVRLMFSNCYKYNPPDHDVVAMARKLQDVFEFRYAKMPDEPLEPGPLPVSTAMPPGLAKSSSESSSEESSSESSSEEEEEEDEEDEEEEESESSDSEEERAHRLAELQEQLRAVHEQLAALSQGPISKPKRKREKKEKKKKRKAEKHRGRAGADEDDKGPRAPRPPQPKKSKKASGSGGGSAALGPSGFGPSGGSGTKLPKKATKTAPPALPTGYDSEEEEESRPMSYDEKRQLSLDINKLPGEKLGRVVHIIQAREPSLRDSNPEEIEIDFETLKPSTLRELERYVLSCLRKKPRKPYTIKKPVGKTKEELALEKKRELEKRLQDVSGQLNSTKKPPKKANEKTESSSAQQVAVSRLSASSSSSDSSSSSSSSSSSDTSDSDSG
Sequence of Folliculin-interacting protein 1 (Q8TF40 whole entry): as the sequence (Q8TF40 whole entry) above
Sequence of von Hippel-Lindau disease tumor suppressor (P40337 whole entry): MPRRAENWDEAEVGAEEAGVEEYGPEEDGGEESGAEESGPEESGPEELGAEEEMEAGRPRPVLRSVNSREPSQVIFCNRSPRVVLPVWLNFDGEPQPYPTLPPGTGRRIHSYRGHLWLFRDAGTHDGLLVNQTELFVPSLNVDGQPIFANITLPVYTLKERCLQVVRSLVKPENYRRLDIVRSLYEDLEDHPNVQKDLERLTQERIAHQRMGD

The term DC50 denotes the midpoint of the concentration-degradation curve. In general, Emax refers to the maximal effect, on the per cent scale that the assay sets. As for `C#CCCCC(=O)N1CCOc2ccc(N(CCC#N)C(=O)CCl)cc21`, the figures for the DC50 in [1], in [2] and in data set [4] were 196 nM, 313 nM and 250 nM, respectively. In [3], this molecule returned an Emax of 94%.

With `COc1cc(C(=O)NCCOCCOCCOCCNC(=O)C[C@@H]2N=C(c3ccc(Cl)cc3)c3c(sc(C)c3C)-n3c(C)nnc32)ccc1NC(=O)[C@@H]1N[C@@H](CC(C)(C)C)[C@](C#N)(c2ccc(Cl)cc2F)[C@H]1c1cccc(Cl)c1F`, in [5], the DC50 was 36 nM. The GC50 in the data set on SUD4 is 25170 nM.

For orientation: IC50 means the point on the concentration scale where inhibition reaches its midpoint. Turning to `Cc1sc2c(c1C)C(c1ccc(Cl)cc1)=N[C@@H](CC(=O)NCCCCCNC(=O)COc1ccc(C3CCC(=O)NC3=O)cc1)c1nnc(C)n1-2` (stereo partly drawn), the DC50 in data set [6] amounted to 0.16 nM; in data set [7], 24 nM; in data set [8], 0.87 nM. Besides, the values for the half-maximal inhibitory concentration (IC50) in the data set on MV4-11 [9] and with MV4-11 [10] were 0.003 nM and 1.83 nM, respectively. This molecule displayed an Emax in data set [11] of 87%.

What is called TGI is how far tumour growth fell short of that in controls. Regarding `Cc1sc2c(c1C)C(c1ccc(Cl)cc1)=N[C@@H](CC(=O)NCCOCCOCCOCC(=O)NC(C)C(C)(C)C)c1nnc(C)n1-2` (stereo partly drawn), the IC50 with MCF7 [12] was 59.8 nM. Besides, the IC50 at 48 h in data set [13] is 670 nM. Besides, the TGI with MCF7 [14] is given as 59.8%. This molecule also had an Emax in [15] of 13%. Besides, it took 22 nM to reach half-maximal degradation in data set [16] (DC50).

For the molecule `Cc1sc2c(c1C)C(c1ccc(Cl)cc1)=N[C@@H](CC(=O)NCCOCCOCCNC(=O)c1cccc(S(=O)(=O)Nc3ccc(C)c4c(C#N)c[nH]c34)c1)c1nnc(C)n1-2`, the Emax in data set [17] worked out at 98%. In addition, the GC50 in the data set with SUD4 is 4640 nM. In [18], this molecule registered a DC50 of 10800 nM.

Broadly, the Kd is the concentration at which binding is half-saturated. As usually defined, the EC50 is the concentration that produces a half-maximal response. `Cc1ncsc1-c1ccc2c(c1)OCCOCCOC[C@@H](NC(=O)C[C@H]1N=C(c3ccc(Cl)cc3)c3c(sc(C)c3C)-n3c(C)nnc31)COCCOCCOCC(=O)N[C@@H](C(C)(C)C)C(=O)N1C[C@H](O)C[C@H]1C(=O)NC2`: the dissociation constant (Kd) in data set [19] was determined as 180 nM; in data set [22], 180 nM; in data set [25], 47 nM. Besides, the Activity in [20] was > 90%. Besides, the half-maximal effective concentration (EC50) in the data set with MV4-11 [21] came out at 300 nM; in the data set with CWR22R it was 640 nM. Besides, the half-maximal degradation concentration (DC50) in data set [23] is 25 nM; in data set [24], 125 nM.

One may read the GI50 as the concentration giving 50% growth inhibition. The molecule `CCOC(=O)C[C@H](c1ccc(C)c(CN2C[C@H](C)Oc3ccccc3S2(=O)=O)c1)c1cc(OCCNC(=O)CNC(=O)C[C@H]2N=C(c3ccc(Cl)cc3)c3c(sc(C)c3C)-n3c(C)nnc32)c2c(c1)nnn2C` returned an Emax in data set [26] of 80%. Besides, the GI50 in the data set with MDA-MB-468 is 280 nM; with MDA-MB-231, 130 nM.

As to `N#CCCN(C(=O)CCl)c1ccc2c(c1)OCCO2`, the IC50 in [27] came to 670 nM; in data set [28] it was 2200 nM.

For the origin of these results see ChEMBL document CHEMBL5241114, “A comprehensive review of BET-targeting PROTACs for cancer therapy” (Bioorg Med Chem, 2022).
